Reference: PubChem BioAssay (NCI)
Values joined by “and” are separate entries in the source; they are usually repeats but may differ in a detail not shown here. Equal values may be shown once.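 Cultured in 96-well plates, cells were exposed to test compound for 48 hours across five concentrations. GI50 = concentration required for 50% inhibition of growth. TGI denotes the concentration required for complete inhibition of growth.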

Key:
Assay in all cases: NCI tumour cell line growth inhibition, 48 h
SK-MEL-5 melanoma = tested on: SK-MEL-5 melanoma
NCI-H522 lung = tested on: NCI-H522 lung
DU-145 prostate = tested on: DU-145 prostate
SK-MEL-2 melanoma = tested on: SK-MEL-2 melanoma
SNB-19 CNS = tested on: SNB-19 CNS
RPMI-8226 leukemia = tested on: RPMI-8226 leukemia
KM12 colon = tested on: KM12 colon
NCI-H226 lung = tested on: NCI-H226 lung
UACC-257 melanoma = tested on: UACC-257 melanoma
OVCAR-8 ovarian = tested on: OVCAR-8 ovarian

Structure (SMILES) | GI50 (SK-MEL-5 melanoma) | TGI (SK-MEL-5 melanoma) | GI50 (NCI-H522 lung) | TGI (NCI-H522 lung) | GI50 (DU-145 prostate) | TGI (DU-145 prostate) | GI50 (SK-MEL-2 melanoma) | TGI (SK-MEL-2 melanoma) | GI50 (SNB-19 CNS) | TGI (SNB-19 CNS) | GI50 (RPMI-8226 leukemia) | TGI (RPMI-8226 leukemia) | GI50 (KM12 colon) | TGI (KM12 colon) | GI50 (NCI-H226 lung) | TGI (NCI-H226 lung) | GI50 (UACC-257 melanoma) | TGI (UACC-257 melanoma) | GI50 (OVCAR-8 ovarian) | TGI (OVCAR-8 ovarian)
C[C@H](NC(=O)[C@@H](C)N)[C@H](Oc1ccc2c(cnn2-c2ccc(F)cc2)c1)c1ccc2c(c1)OCCO2 | 1.52 µM | 2.94 µM | 1.9 µM | 3.78 µM | 2.02 µM | 5.01 µM | 1.91 µM | 3.92 µM | 3.29 µM | 12.4 µM | 1.17 µM | 3.75 µM | 2.13 µM | 5.15 µM | 2.64 µM | 15.8 µM | 1.94 µM | 3.61 µM | 3.25 µM | 14 µM
ClCc1cccc2c(CCl)cccc12 | 8.23 µM | 21.4 µM | 2.83 µM | 16.3 µM | 1.76 µM | 4.08 µM | 20.4 µM | 67.4 µM | 5.08 µM | 19.7 µM | 2 µM | 7.41 µM | 1.55 µM | 3.48 µM | 12 µM | 30.6 µM | 2.6 µM | 12.6 µM | 4.29 µM | 33.6 µM
N#CC1(C#N)C2(c3ccccc3)OC(c3ccccc3)(c3cc4ccccc4cc32)C1(C#N)C#N | – | 27.8 µM | – | 8.43 µM | – | 28.5 µM | – | 37.9 µM | – | 32.2 µM | – | 5.34 µM | – | 23.7 µM | – | 37.2 µM | – | > 54.2 µM | – | 26.8 µM
CCOC(=O)N1CCN(/[N+]([O-])=N/Oc2ccc([N+](=O)[O-])cc2[N+](=O)[O-])CC1 | 2.77 µM | 12.1 µM | 4.36 µM | 22.4 µM | 4.73 µM | 19.2 µM | 7.08 µM | 25.9 µM | 6.68 µM | 20.7 µM | 0.34 µM | 12.9 µM | 1.78 µM | 8.56 µM | 3.77 µM | 16.7 µM | 2.27 µM | 7 µM | 3.49 µM | 12.9 µM
C=C(C)C(O)CCC1(C)C=Cc2c(c(C)cc3c2[nH]c2ccccc23)O1 (centres undefined) | 10.1 µM | 25 µM and 21.7 µM | 3.29 µM | 11.3 µM and 9.34 µM | – | 25.1 µM | 2.11 µM | 8.32 µM | 11.5 µM | 25 µM and 23.6 µM | 2.96 µM | 25 µM and 8.01 µM | 2 µM | 12.5 µM and 4.32 µM | – | 22.7 µM and 21.7 µM | – | 20.5 µM | 10.7 µM | 25 µM and 22.9 µM
CCN(Cc1ccc(Cl)cc1)c1ccc(CO)c(Cl)c1 | 2.58 µM | 13.2 µM | 7.55 µM | 22.6 µM | 7.89 µM | 22.7 µM | 1.75 µM | 10.6 µM | 13.1 µM | 28.9 µM | 3.27 µM | 32.9 µM | 11.8 µM | 25.6 µM | 0.063 µM | 0.198 µM | 0.145 µM | 0.512 µM | 3.62 µM | 21 µM
C[C@]12CC[C@@H]3c4ccc(OC(=O)N(CCCl)CCCl)cc4CC[C@H]3[C@@H]1CC[C@@H]2O | 1.95 µM | 9.27 µM | 2.53 µM | 15.2 µM | 2.53 µM | 8.63 µM | 4.31 µM | 14.8 µM | 7.04 µM | – | 1.62 µM | 5.42 µM | 3.1 µM | 9.77 µM | 3.98 µM | 22.3 µM | 3.81 µM | 15 µM | 3.85 µM | –
O=C1C(Cl)=C(Nc2cccc(Cl)c2)C(=O)N1Cc1ccc(Cl)cc1 | 0.66 µM | 4.32 µM | 0.916 µM | 8.21 µM | 2.72 µM | 11.4 µM | 2.2 µM | – | 4.06 µM | 33 µM | 0.266 µM | 3.37 µM | 2.83 µM | 14.2 µM | 0.119 µM | 1.37 µM | 6.39 µM | 28.2 µM | 0.833 µM | 18.5 µM
CCN1C(=O)N(CC)C2C1NN=c1s/c(=C\c3cccc(F)c3)c(=O)n12 (centres undefined) | 0.131 µM | 2.33 µM | 0.228 µM | 33.2 µM | 0.389 µM | > 100 µM | 1.69 µM | > 100 µM | 0.263 µM | > 100 µM | 0.119 µM | 7.78 µM | 0.0856 µM | > 100 µM | 0.24 µM | > 100 µM | 30 µM | > 100 µM | 0.345 µM | > 100 µM
O=C(c1ccccc1)c1ccccc1-c1ccccc1 | 3.2 µM | 12.5 µM | 0.74 µM | 4.06 µM | 3.36 µM | 38.2 µM | 1.65 µM | 9.48 µM | 5.45 µM | > 100 µM | 4.91 µM | 52 µM | 1.16 µM | 43.3 µM | 19.6 µM | > 100 µM | 14.5 µM | > 100 µM | 4.77 µM | 52.4 µM
N#Cc1ccc(OCc2nc(N)nc(N)c2-c2ccc(Cl)c(Cl)c2)cc1 | 0.724 µM | 13.2 µM | 2.97 µM | 19.9 µM | 3.6 µM | > 100 µM | 3.55 µM | 22 µM | 2.79 µM | > 100 µM | 5.42 µM | > 100 µM | 2.85 µM | 84.5 µM | 4.86 µM | > 100 µM | 0.593 µM | 37.2 µM | 0.621 µM | 54.5 µM
C[C@@]1(C(=O)O)CCC[C@]2(C)C1CC[C@@]13CC(=O)[C@@](CO)(CC[C@]12O)C3 (some centres undefined) | > 100 µM | > 100 µM | > 100 µM | > 100 µM | > 100 µM | > 100 µM | > 100 µM | > 100 µM | 90.7 µM | > 100 µM | > 100 µM | > 100 µM | > 100 µM | > 100 µM | > 100 µM | > 100 µM | > 100 µM | > 100 µM | > 100 µM | > 100 µM
O=C(O)CN(CC(=O)O)Cc1cc(C#Cc2ccc(C#Cc3ccccc3)cc2)cc(CN(CC(=O)O)CC(=O)O)n1 | – | > 71.5 µM | – | 52 µM | – | > 100 µM | – | > 73.7 µM | – | > 77 µM | – | 48.8 µM | – | > 92 µM | – | 58.7 µM | – | > 89.1 µM | – | > 60.6 µM
COc1ncnc2c(-c3ccccc3)cn(COCc3ccccc3)c12 | 1.13 µM | 2.34 µM | 2.09 µM | 6.17 µM | 10.4 µM | > 100 µM | 2.08 µM | 4.99 µM | 6.53 µM | > 100 µM | 2.03 µM | 13 µM | 3.1 µM | 19.9 µM | 2.03 µM | 8.12 µM | 2.74 µM | 9.31 µM | 3.02 µM | 11.7 µM
Oc1c(-c2nnc(-c3ccccc3Cl)o2)sc2nnc(-c3ccccc3)c(-c3ccccc3)c12 | 5.99 µM | 19.8 µM | 3.59 µM | 23.5 µM | 8.26 µM | > 100 µM | 3.23 µM | 15.7 µM | 4.37 µM | > 100 µM | 2.92 µM | > 100 µM | 4.36 µM | 51.3 µM | 16.1 µM | > 100 µM | 8.09 µM | 62.7 µM | 3.72 µM | > 100 µM
